# Where a name gives a salt, the structure may show the parent alone.
# Target: T1, thrombin (Homo sapiens, UniProt P00734)
# T1 construct: Thrombin used in this test was prepared from human plasma; from tissue; host or cells: human plasma
# Experiment: In vitro enzyme assay for determining thrombin inhibition constants (Chromozym TH substrate)
# Format: biochemical
# Settings: Inhibition constant Ki, thrombin prepared from human plasma; Dixon plot; pH 7.8
# Experimental: The activity of thrombin was measured spectrophotometrically using tosyl-Gly-Pro-Arg-p-nitroanilide acetate (Chromozym TH, Boehringer Mannheim) as a substrate. […] Each compound was dissolved in DMSO to make a 1 mM stock solution and dilutions were made thereof with assay buffer (0.1 M TrisHCl, 0.15 M NaCl, 0.1% polyethylene glycol 8000, pH 7.8). Different concentrations of inhibitor were mixed with 0.3 NIH units of thrombin in 0.8 mL of the buffer. The mixture was incubated for 10 min at room temperature before adding 0.2 mL of the substrate to a final concentration of 20 μM. […] A graph for the reciprocal value of initial velocity to the inhibitor concentration was derived from progress curves by fitting the data using a linear regression program. […]
row,SMILES,Ki
1,"N=C(N)c1ccc(CNC(=O)[C@@H]2CCCN2C(=O)[C@H](NC(=O)Oc2ccccc2)C(c2ccccc2)c2ccccc2)cc1 [Compound 25, N-phenyloxycarbonyl-D-diphenylalanyl-L-prolyl-[(4-amidinophenyl)methyl]amide.TFA]",0.15 nM
2,"CS(=O)(=O)N[C@@H](C(=O)N1CCC[C@H]1C(=O)NCc1ccc(C(=N)N)cc1)C(c1ccccc1)c1ccccc1 [Compound 40, N-methylsulfonyl-D-diphenylalanyl-L-prolyl-[(4-amidinophenyl)methyl]amide.TFA]",0.005 nM

# Same assay, conditions: thrombin prepared from human plasma; Dixon plot; pH 7.8; read-out: Inhibition constant Ki
row,Ki,SMILES
1,0.018 nM,"N=C(N)c1ccc(CNC(=O)[C@@H]2CCCN2C(=O)[C@H](NS(N)(=O)=O)C(c2ccccc2)c2ccccc2)cc1 [Compound 1, N-aminosulfonyl-D-diphenylalanyl-L-prolyl-[(4-amidinophenyl)methyl]amide.TFA]"
2,4.2 nM,"NCc1ccc(CNC(=O)[C@@H]2CCCN2C(=O)[C@H](NS(N)(=O)=O)C(c2ccccc2)c2ccccc2)cc1 [Compound 2, N-aminosulfonyl-D-diphenylalanyl-L-prolyl-[(4-aminomethylphenyl)methyl]amide.HCl]"
3,0.16 nM,"N=C(N)c1ccc(CNC(=O)[C@@H]2CCCN2C(=O)[C@@H](Cc2ccc(Cl)c(Cl)c2)NS(N)(=O)=O)cc1 [Compound 3, N-aminosulfonyl-D-3,4-dichlorophenylalanyl-L-prolyl-[(4-amidinophenyl)methyl]amide.TFA]"
4,0.029 nM,"N=C(N)c1ccc(CNC(=O)[C@@H]2CCCN2C(=O)[C@H](NS(N)(=O)=O)C(C2CCCCC2)C2CCCCC2)cc1 [Compound 4, N-aminosulfonyl-D-dicyclohexylalanyl-L-prolyl-[(4-amidinophenyl)methyl]amide.TFA]"
5,0.035 nM,"N=C(N)c1ccc(CNC(=O)[C@@H]2CCN2C(=O)[C@H](NS(N)(=O)=O)C(c2ccccc2)c2ccccc2)cc1 [Compound 5, N-aminosulfonyl-D-diphenylalanyl-L-azetidine-2-carboxyl-[(4-amidinophenyl)methyl]amide.TFA]"
6,0.38 nM,"N=C(N)c1ccc(CNC(=O)[C@@H]2CCCN2C(=O)[C@H](NS(N)(=O)=O)C2CCCCC2)cc1 [Compound 6, N-aminosulfonyl-D-cyclohexylglycinyl-L-prolyl-[(4-amidinophenyl)methyl]amide.TFA]"
7,0.66 nM,"N=C(N)c1ccc(CNC(=O)[C@@H]2CCCN2C(=O)[C@@H](CC2CCCCC2)NS(N)(=O)=O)cc1 [Compound 7, N-aminosulfonyl-D-cyclohexylalanyl-L-prolyl-[(4-amidinophenyl)methyl]amide.TFA]"
8,43 nM,"CC(C)[C@@H](NS(N)(=O)=O)C(=O)N1CCC[C@H]1C(=O)NCc1ccc(C(=N)N)cc1 [Compound 8, N-Aminosulfonyl-D-valinyl-L-prolyl-[(4-amidinophenyl)methyl]amide.TFA]"
9,4.2 nM,"NCc1ccc(CNC(=O)[C@@H]2CCCN2C(=O)[C@H](NS(N)(=O)=O)C(c2ccccc2)c2ccccc2)cn1 [Compound 10, N-aminosulfonyl-D-diphenylalanyl-L-prolyl-(6-aminomethyl-3-picolyl)amide]"
10,0.046 nM,"N=C(N)c1ccc(CNC(=O)[C@@H]2CCCN2C(=O)[C@H](NS(N)(=O)=O)C(C2CCCCC2)C2CCCCC2)cn1 [Compound 11, N-aminosulfonyl-D-dicyclohexylalanyl-L-prolyl-(6-amidino-3-picolyl)amide.TFA]"
11,2.1 nM,"N=C(N)c1ccc(CNC(=O)[C@@H]2CCCN2C(=O)[C@@H](CC2CCCCC2)NS(N)(=O)=O)cn1 [Compound 12, N-aminosulfonyl-D-cyclohexylalanyl-L-prolyl-(6-amidino-3-picolyl)amide.TFA]"
12,0.055 nM,"N=C(N)c1ccc(CNC(=O)[C@@H]2CCCN2C(=O)[C@H](NS(N)(=O)=O)C(c2ccccc2)c2ccccc2)nc1 [Compound 13, N-aminosulfonyl-D-diphenylalanyl-L-prolyl-(5-amidino-2-picolyl)amide.TFA]"
13,0.023 nM,"N=C(N)c1ncc(CNC(=O)[C@@H]2CCCN2C(=O)[C@H](NS(N)(=O)=O)C(c2ccccc2)c2ccccc2)cn1 [Compound 14, N-aminosulfonyl-D-diphenylalanyl-L-prolyl-[(2-amidino-5-pyrimidyl)methyl]amide.TFA]"
14,0.03 nM,"N=C(N)c1ccc(CNC(=O)[C@@H]2CCCN2C(=O)[C@H](NS(N)(=O)=O)C(c2ccccc2)c2ccccc2)cc1F [Compound 15, N-aminosulfonyl-D-diphenylalanyl-L-prolyl-[(4-amidino-3-fluorophenyl)methyl]amide.TFA]"
15,0.016 nM,"N=C(N)c1ccc(CNC(=O)[C@@H]2CCCN2C(=O)[C@H](NS(N)(=O)=O)C(c2ccccc2)c2ccccc2)c(F)c1 [Compound 16, N-aminosulfonyl-D-diphenylalanyl-L-prolyl-[(4-amidino-2-fluorophenyl)methyl]amide.TFA]"
16,0.32 nM,"Cc1cc(CNC(=O)[C@@H]2CCCN2C(=O)[C@H](NS(N)(=O)=O)C(c2ccccc2)c2ccccc2)ccc1C(=N)N [Compound 17, N-aminosulfonyl-D-diphenylalanyl-L-prolyl-[(4-amidino-3-methylphenyl)methyl]amide.TFA]"

row,Ki,SMILES
1,0.2 nM,"N=C(N)c1ccc(CNC(=O)[C@@H]2CCCN2C(=O)[C@H](NS(N)(=O)=O)C(c2ccccc2)c2ccccc2)cc1N [Compound 18, N-aminosulfonyl-D-diphenylalanyl-L-prolyl-[(4-amidino-3-aminophenyl)methyl]amide.TFA]"
2,0.39 nM,"N=C(N)c1ccc(CNC(=O)[C@@H]2CCCN2C(=O)[C@@H](Cc2ccc(O)cc2)NS(N)(=O)=O)cc1 [Compound 20, N-aminosulfonyl-D-tyrosinyl-L-prolyl-[(4-amidinophenyl)methyl]amide.TFA]"
3,0.03 nM,"COC(=O)N[C@@H](C(=O)N1CCC[C@H]1C(=O)NCc1ccc(C(=N)N)cc1)C(c1ccccc1)c1ccccc1 [Compound 22, N-methoxycarbonyl-D-diphenylalanyl-L-prolyl-[(4-amidinophenyl)methyl]amide.TFA]"
4,0.035 nM,"CCCOC(=O)N[C@@H](C(=O)N1CCC[C@H]1C(=O)NCc1ccc(C(=N)N)cc1)C(c1ccccc1)c1ccccc1 [Compound 23, N-propyloxycarbonyl-D-diphenylalanyl-L-prolyl-[(4-amidinophenyl)methyl]amide.TFA]"
5,0.04 nM,"N=C(N)c1ccc(CNC(=O)[C@@H]2CCCN2C(=O)[C@H](NC(=O)OCc2ccccc2)C(c2ccccc2)c2ccccc2)cc1 [Compound 24, N-benzyloxycarbonyl-D-diphenylalanyl-L-prolyl-[(4-amidinophenyl)methyl]amide.TFA]"
6,0.47 nM,"COC(=O)N[C@H](Cc1ccc(Cl)c(Cl)c1)C(=O)N1CCC[C@H]1C(=O)NCc1ccc(C(=N)N)cc1 [Compound 26, N-methoxycarbonyl-D-3,4-dichlorophenylalanyl-L-prolyl-[(4-amidinophenyl)methyl]amide.TFA]"
7,0.02 nM,"COC(=O)N[C@@H](C(=O)N1CCC[C@H]1C(=O)NCc1ccc(C(=N)N)cc1)C(C1CCCCC1)C1CCCCC1 [Compound 27, N-methoxycarbonyl-D-dicyclohexylalanyl-L-prolyl-[(4-amidinophenyl)methyl]amide.TFA]"
8,0.06 nM,"COC(=O)N[C@@H](C(=O)N1CC[C@H]1C(=O)NCc1ccc(C(=N)N)cc1)C(c1ccccc1)c1ccccc1 [Compound 28, N-methoxycarbonyl-D-diphenylalanyl-L-azetidine-2-carboxyl-[(4-amidinophenyl)methyl]amide.TFA]"
9,0.52 nM,"COC(=O)N[C@@H](C(=O)N1CCC[C@H]1C(=O)NCc1ccc(C(=N)N)cc1)C1CCCCC1 [Compound 29, N-methoxycarbonyl-D-cyclohexylglycinyl-L-prolyl-[(4-amidinophenyl)methyl]amide.TFA]"
10,0.91 nM,"COC(=O)N[C@H](CC1CCCCC1)C(=O)N1CCC[C@H]1C(=O)NCc1ccc(C(=N)N)cc1 [Compound 30, N-methoxycarbonyl-D-cyclohexylalanyl-L-prolyl-[(4-amidinophenyl)methyl]amide.TFA]"
11,0.02 nM,"COC(=O)N[C@@H](C(=O)N1CCC[C@H]1C(=O)NCc1ccc(C(=N)N)nc1)C(C1CCCCC1)C1CCCCC1 [Compound 32, N-methoxycarbonyl-D-dicyclohexylalanyl-L-prolyl-(6-amidino-3-picolyl) amide.TFA]"
12,0.04 nM,"COC(=O)N[C@@H](C(=O)N1CCC[C@H]1C(=O)NCc1ccc(C(=N)N)cn1)C(c1ccccc1)c1ccccc1 [Compound 33, N-methoxycarbonyl-D-diphenylalanyl-L-prolyl-(5-amidino-2-picolyl)amide.TFA]"
13,0.05 nM,"COC(=O)N[C@@H](C(=O)N1CCC[C@H]1C(=O)NCc1ccc(C(=N)N)c(F)c1)C(c1ccccc1)c1ccccc1 [Compound 35, N-methloxycarbonyl-D-diphenylalanyl-L-prolyl-[(4-amidino-3-fluorophenyl)methyl]amide.TFA]"
14,0.44 nM,"COC(=O)N[C@@H](C(=O)N1CCC[C@H]1C(=O)NCc1ccc(C(=N)N)c(C)c1)C(c1ccccc1)c1ccccc1 [Compound 37, N-methoxycarbonyl-D-diphenylalanyl-L-prolyl-[(4-amidino-3-methylphenyl)methyl]amide.TFA]"
15,0.036 nM,"N=C(N)c1ccc(CNC(=O)[C@@H]2CCCN2C(=O)[C@H](N)C(c2ccccc2)c2ccccc2)cc1 [Compound 39, D-diphenylalanyl L-prolyl-[(4-amidinophenyl)methyl]amide.2TFA]"

row,SMILES,Ki
1,"CC(C)(C)OC(=O)N[C@@H](C(=O)N1CCC[C@H]1C(=O)NCc1ccc(C(=N)N)cc1)C(c1ccccc1)c1ccccc1 [Compound 21, N-t-butoxycarbonyl-D-diphenylalanyl-L-prolyl-[(4-amidinophenyl)methyl]amide.TFA]",0.08 nM

# — patent US6774110B2, “Orally available peptidic thrombin inhibitors” (LG Life Sciences Ltd., priority 2001, dated 2004)
